Results as given in ChEMBL document CHEMBL1136407, “Binding mode of 6ECDCA, a potent bile acid agonist of the farnesoid X receptor (FXR)” (Bioorg Med Chem Lett, 2003).
pEC50: −log10 of the molar value.

Molecular target: T1, Bile acid receptor (Homo sapiens, UniProt Q96RI1)
T1 sequence (Q96RI1 whole entry): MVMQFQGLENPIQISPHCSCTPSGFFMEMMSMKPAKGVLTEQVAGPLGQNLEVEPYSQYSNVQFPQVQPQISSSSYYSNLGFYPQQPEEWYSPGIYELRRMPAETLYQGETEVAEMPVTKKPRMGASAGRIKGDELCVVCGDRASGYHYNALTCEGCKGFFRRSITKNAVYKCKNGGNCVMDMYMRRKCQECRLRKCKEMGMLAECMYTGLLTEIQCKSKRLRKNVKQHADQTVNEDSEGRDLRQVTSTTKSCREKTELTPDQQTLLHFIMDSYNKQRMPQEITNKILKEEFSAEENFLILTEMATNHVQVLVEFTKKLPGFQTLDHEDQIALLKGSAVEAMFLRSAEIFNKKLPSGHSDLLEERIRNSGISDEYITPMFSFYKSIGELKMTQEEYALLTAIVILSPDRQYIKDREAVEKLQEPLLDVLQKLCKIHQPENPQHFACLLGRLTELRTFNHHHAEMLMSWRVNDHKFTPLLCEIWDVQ
Test: Binding affinity for Farnesoid X Receptor (FXR)

C[C@H](CCC(=O)O)C1CC[C@H]2[C@@H]3[C@H](O)[C@H](Cc4ccccc4)C4C[C@H](O)CC[C@]4(C)[C@H]3CC[C@]12C (stereo partly specified)
pEC50: < 4.52
